From patent US20190008864A1, “PHARMACEUTICAL COMPOSITION CONTAINING GPR119 LIGAND AS EFFECTIVE INGREDIENT FOR PREVENTING OR TREATING NON-ALCOHOLIC STEATOHEPATITIS” (PHARMEDIX.CO., LTD., priority 2014, published 2019)

Legend:
[1] = tested on: SREBP-1c; assay: SREBP-1c expression under high-glucose/high-insulin exposure, HepG2 (western blot); format: cell-based, human; settings: 30 mM glucose, 200 nM insulin 24 hours, 1-3 μM ligand
Protocol: A 6-well plate was inoculated with HepG2 (ATCC, US), as a human hepatocyte line, and cultured until confluence in a DMEM medium containing 1% penicillin-streptomycin (Hyclone, US) and 10% fetal bovine serum (Hyclone, US) in a 5% CO2 incubator at 37° C. The medium containing 10% fetal bovine serum of the hepatocyte line grown to confluence was replaced by a medium not containing FBS. The cell line was additionally cultured for 18 hours and used as a sample for an experiment.
(§1) Sodium dodecyl sulfate-polyacrylamide gel electrophoresis (SDS-PAGE) was carried out by means of a gel electrophoresis device (Mighty Small SE 250, Hoefer Scientific Instruments, San Francisco) according to a method by Laemmli (UK, Nature 227, 680-685, 1970). […] Whether total protein contents in samples are the same is determined using anti-β-actin and anti-LaminA/C antibodies. Changes in protein expression amounts were determined by measuring the intensities of chemiluminescence signals on the blot by means of densitometry. […] Each lane was calculated using AlphaEase™ version 5.5 software and background intensity was removed from the calculated values. […]

[2] = tested on: SREBP-1c; assay: SREBP-1c expression under high-glucose/high-insulin exposure, primary hepatocytes (western blot); format: cell-based, mouse; settings: 0.3-10 μM ligand
Protocol: Liver cells were collected from male C57BL/6 mice (Central Lab. Animal Inc., Seoul) according to a method by Seglen et al. (Exp Cell Res., 82, pp 391-398, 1973). Each C57BL/6 mouse was anesthetized and then the abdomen thereof was incised. Subsequently, the hepatic portal vein was intubated and a gas mixture of 5% CO2 and 95% O2 was insufflated thereinto. A Ca^2+ and Mg^2+-free Hank's balanced salt solution at 37° C. was flowed into the tube to remove blood in the liver. Subsequently, a 0.1% collagenase type IV (Sigma, US) solution was flowed thereinto. The liver tissue was removed from the body, and then prepared into a hepatocyte suspension. The prepared hepatocyte suspension was centrifuged at 50×g for two minutes. […]
as §1

[3] = tested on: iNOS protein; assay: iNOS protein expression after LPS stimulation in RAW264.7 cells (western blot); format: cell-based, mouse; settings: RAW264.7, 3 μM, 10 ng/ml LPS, 6 hours
Protocol: RAW264.7 cells cultured in 6-well plates were stabilized for 12 hours in a serum-free medium, and then exposed to 3 μM of MBX-2982 and 10 ng/ml of LPS. After 6 hours, the cells were lysed in cytolysis buffer and voltexed. Centrifugation was conducted at 14,000 rpm and 4° C. for 20 minutes. A supernatant of the centrifuged solution was collected and then subjected to protein quantification by the Bradford assay. 15 μg of a protein thereof was electrophoresed on an SDS polyacrylamide gel, and then expression changes of iNOS and COX-2 proteins were measured by western blotting. Expression changes in triplicate experiments were measured with a densitometer and are shown as graphs.
As described above, RAW264.7 cells, which were derived from a mouse macrophage cell line, was subjected to LPS stimulation, and then inflammatory marker changes therein were evaluated. Results are illustrated in FIG. 17.

**Q.** How did the “SREBP-1c and nuclear (active-type) SREBP-1C expression increased by high-glucose/high-insulin” value [1] turn out when `CCc1cnc(N2CCC(c3nc(COc4ccc(-n5cnnn5)cc4)cs3)CC2)nc1` [MBX2982, 4-((4-(1H-tetrazol-1-yl)phenoxy)methyl)-2-(1-(5-ethylpyrimidin-2-yl)piperidin-4-yl)thiazole] was run?
**A.** completely inhibited

**Q.** And the “SREBP-1c and nuclear (active-type) SREBP-1C expression increased by high-glucose/high-insulin” value [2]?
**A.** completely inhibited

**Q.** What about the “expression of iNOS protein” value [3] of the same compound?
**A.** decreased
